Where “and” joins values, the source holds several entries; their conditions need not be identical. Equal values may be shown once.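 Five compound concentrations were applied to cells in 96-well plates for 48 hours; endpoints were derived by simple linear interpolation of the resulting dose-response curve. GI50: concentration for 50% inhibition of growth. The concentration for full growth arrest is given as TGI.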
Columns and labels:
Assay in all cases: DTP human tumour cell line panel, 48 h
[1] = tested on: 786-0 renal
[2] = tested on: HL-60(TB) leukemia
[3] = tested on: HOP-62 NSCLC
[4] = tested on: IGROV1 ovarian
[5] = tested on: KM12 colon
[6] = tested on: NCI-H460 lung
[7] = tested on: OVCAR-3 ovarian
[8] = tested on: RPMI-8226 leukemia
[9] = tested on: RXF 393 renal
[10] = tested on: T-47D breast

| Compound | TGI [1] | TGI [2] [µM] | TGI [3] | TGI [4] | TGI [5] | TGI [6] | GI50 [7] | TGI [7] | TGI [8] [µM] | GI50 [9] | TGI [9] | TGI [10] [µM] | GI50 [1] [µM] | GI50 [3] [µM] | GI50 [4] [µM] | GI50 [5] [µM] | GI50 [6] [µM] | GI50 [8] [µM] | GI50 [10] [µM] | GI50 [2] [µM] |
| --- | --- | --- | --- | --- | --- | --- | --- | --- | --- | --- | --- | --- | --- | --- | --- | --- | --- | --- | --- | --- |
| CC1OC(OC23C(=O)CC(C)(O)CC2(O)C=CC2=C3C(=O)c3ccc(C4CC(OC5CCC(OC6CC(O)C(O)C(C)O6)C(C)O5)C(O)C(C)O4)c(O)c3C2=O)CCC1O (stereo unspecified) | 31.7 µM and 29.5 µM | > 100 | 79.4 µM and 41.4 µM | 30.6 µM and 30.1 µM | 31.2 µM and 27.5 µM | 38 µM and 34.3 µM | 15.9 µM and 2.86 µM | 29.8 µM and 9.07 µM | > 100 | 13.8 µM and 5.87 µM | 26.9 µM and 19.2 µM | – | – | – | – | – | – | – | – | – |
| CN(C)C(=O)C(NCCO)c1ccccc1 (stereo unspecified) | > 100 µM | – | > 100 µM | > 100 µM | > 100 µM | > 100 µM | – | > 100 µM | 59.7 | – | > 100 µM | > 100 | – | – | – | – | – | – | – | – |
| CN(Cc1ccccc1)c1ncnc2ccc(Br)cc12 | 26.3 µM | – | 25.9 µM | > 100 µM | 25.5 µM | 26 µM | 7.45 µM | 20.8 µM | 13.1 | 13.7 µM | 31 µM | > 100 | 13.5 | 12.6 | 8.17 | 11.9 | 10.3 | 3.26 | 22 | – |
| N#Cc1c(N)n(C2OC(CO)C(O)C2O)c2ncnc(N)c12 (stereo unspecified) | 5.55 µM | – | 2.39 µM | > 100 µM | 1.98 µM | – | – | 0.156 µM | 3.59 | – | 1.33 µM | 0.221 | – | – | – | – | – | – | – | – |
| COc1ccc(C(=C(C#N)C#N)c2ccc(OC)cc2)cc1 | > 100 µM | > 100 | > 100 µM | > 100 µM | > 100 µM | > 100 µM | – | > 100 µM | > 100 | – | > 100 µM | – | – | – | – | – | – | – | – | – |
| [O-]c1ccccc1[C-]=Nc1ccccc1O.[O-]c1ccccc1[C-]=Nc1ccccc1O.[O]=[U]=[O] | 35.9 µM | 7.47 | 57.4 µM | 71 µM | > 100 µM | 41.2 µM | 4.13 µM | 29.5 µM | 49.5 | 20.1 µM | 45.5 µM | – | 13.1 | 19.9 | 21.8 | 6.35 | 14.5 | 1.59 | – | 1.76 |
| CN1CCN2c3ccccc3CC(C#N)(C#N)C2C1 (stereo unspecified) | > 100 µM | > 100 | – | > 100 µM | > 100 µM | > 100 µM | – | > 100 µM | > 100 | – | > 100 µM | – | – | – | – | – | – | – | – | – |
| N=C(N)c1ccc(CS(=O)(=O)F)cc1 | > 100 µM | – | > 100 µM | > 100 µM | > 100 µM | > 100 µM | > 100 µM | > 100 µM | – | > 100 µM | > 100 µM | > 100 | > 100 | > 100 | > 100 | > 100 | > 100 | – | > 100 | – |
| CCOC(=O)C1Nc2ccc([N+](=O)[O-])cc2[C@H]2OCC[C@@H]12 (stereo partly specified) | > 100 µM | > 100 | > 100 µM | > 100 µM | > 100 µM | > 100 µM | – | > 100 µM | – | – | > 100 µM | – | – | – | – | – | – | – | – | – |
| O=C1C[C@@H]2[C@@H](C=CC23CC3)N1O | > 100 µM | > 100 | > 100 µM | > 100 µM | > 100 µM | > 100 µM | – | – | > 100 | – | > 100 µM | – | – | – | – | – | – | – | – | – |
| CC(C)(C)c1cc(O)c2c(c1O)C(=O)CCC2 | > 100 µM | 43.9 | 91.9 µM | > 100 µM | – | > 100 µM | – | 76.5 µM | 54.1 | – | 90.4 µM | – | – | – | – | – | – | – | – | – |
| COc1ccc(C(=O)OC2C(OC3C(O)COC(O[C@H]4C[C@H]5[C@@H]6CC=C7C[C@@H](O)CC[C@]7(C)[C@H]6CC[C@]5(C)[C@H]4[C@H](C)C(=O)CCC(C)C)C3OC(=O)C(C)C)OCC(O)C2O)cc1 (stereo partly specified) | 2.99 µM | – | 1.45 µM | 4.22 µM | 4.77 µM | 0.538 µM | 0.884 µM | 5.88 µM | 0.01 | < 0.00275 µM | 0.0158 µM | 3.08 | < 0.00275 | 0.0129 | 0.0219 | 0.0707 | 0.0108 | < 0.00275 | 0.0358 | – |
| CN1C(=O)C(C)(C)NS1(=O)=O | > 100 µM | > 100 | > 100 µM | > 100 µM | > 100 µM | > 100 µM | – | > 100 µM | > 100 | – | > 100 µM | – | – | – | – | – | – | – | – | – |
| CCOc1ccc(NC(=O)/C(Cc2nc3ccccc3[nH]c2=O)=N\O)cc1 | > 100 µM | – | > 100 µM | > 100 µM | > 100 µM | > 100 µM | – | > 100 µM | > 100 | – | > 100 µM | – | – | – | – | – | – | – | – | – |
| C=C(c1ccccc1)[C@@]1(O)CCCC[C@H]1NC(c1ccccc1)c1ccccc1 | 25.5 µM | 5.95 | 31 µM | 42.4 µM | 30.9 µM | 28 µM | – | 24.7 µM | 25.5 | – | 22.7 µM | – | – | – | – | – | – | – | – | – |
| CO[C@H](C(=O)O[C@H]1C(=O)N2CCC3CCC1C32C)c1ccccc1 (stereo partly specified) | > 100 µM | > 100 | > 100 µM | > 100 µM | > 100 µM | > 100 µM | – | > 100 µM | > 100 | – | > 100 µM | – | – | – | – | – | – | – | – | – |
| CC1=CC[C@@H]2[C@@H](CC[C@@]2(C)O)C(C)(C)[C@H]1CC[C@@H]1[C@@]2(C)CC[C@@H](O)C(C)(C)O[C@@H]2CC[C@]1(C)O | 34.8 µM | 40.5 | 75.4 µM | – | – | 34.8 µM | – | > 100 µM | 52.3 | – | – | > 100 | – | – | – | – | – | – | – | – |
| Cc1cc(N(CCC#N)CCC#N)ccc1/C=C(\NC(=O)/C=C/c1ccccc1)NC(=O)Nc1ccccc1C | > 100 µM | > 100 | – | > 100 µM | > 100 µM | > 100 µM | – | > 100 µM | > 100 | – | 63.4 µM | – | – | – | – | – | – | – | – | – |
| COc1cccc(-c2cc(C(=O)Nc3ccc(Cl)cc3)nc(N)n2)c1 | > 100 µM | > 100 | > 100 µM | > 100 µM | > 100 µM | > 100 µM | – | > 100 µM | > 100 | – | > 100 µM | – | – | – | – | – | – | – | – | – |
| CC12CCC(=O)N1c1cc([N+](=O)[O-])ccc1N2 (stereo unspecified) | > 100 µM | > 100 | > 100 µM | > 100 µM | > 100 µM | – | – | > 100 µM | > 100 | – | > 100 µM | – | – | – | – | – | – | – | – | – |

Reference: PubChem BioAssay (NCI)
